Results on 2 molecules are retold here after ChEMBL document CHEMBL4699511, “Cedrol, a Sesquiterpene Alcohol, Enhances the Anticancer Efficacy of Temozolomide in Attenuating Drug Resistance via Regulation of the DNA Damage Response and MGMT Expression” (J Nat Prod, 2020).

Calls of active or inactive are those of the source. No cut-off for these calls is given here.

In data set [1] the test system is DBTRG-05MG. Kind of data set: Induction of cell cycle arrest in human DBTRG-05MG cells assessed as accumulation at G2/M phase at 112.4 uM after 24 hrs by propidium iodide staining based flow cytometric analysis (reference value: 30.08 +/- 0.1%). It is filed as functional. Background: A flow cytometer gives signals particle by particle.
The subject of data set [2] is DBTRG-05MG. The data set is described as follows: Synergistic cytotoxicity against human DBTRG-05MG cells assessed as synergistic effect index at 134.9 uM after 48 hrs in presence of 412.1 uM TMZ by MTT assay. The format is functional. For orientation: Tetrazolium dyes change colour on reduction, which living cells bring about.
Data set [3] relates to RG2. The data set is described as follows: Induction of apoptosis in rat RG2 cells assessed as cleaved PARP expression at 112.4 uM after 48 hrs by Western blot analysis (reference value: 1). It is filed as functional. Background: In western blotting, separated proteins are transferred to a membrane and probed.
Data set [4] is described as follows: Synergistic cytotoxicity against rat CTX TNA2 cells assessed as synergistic effect index at 134.9 uM after 48 hrs in presence of 103 uM TMZ by MTT assay. The format is cell-based. To be noted: ctx tna2, 48 h.
Data set [5] deals with RG2. Kind of data set: Induction of apoptosis in rat RG2 cells assessed as increase in chromatin condensation at 112.4 uM after 48 hrs in presence of TMZ by TUNEL assay. The format is functional, cell-based.
In data set [6] the test system is RG2. Kind of data set: Induction of cell cycle arrest in rat RG2 cells assessed as accumulation at G2/M phase at 112.4 uM after 6 hrs by propidium iodide staining based flow cytometric analysis (reference value: 20.04 +/- 0.55%). The format is functional.
Data set [7] deals with RG2. The data set is described as follows: Induction of cell cycle arrest in rat RG2 cells assessed as CyclinA expression at 112.4 uM after 48 hrs by Western blot analysis (reference value: 1). It is filed as functional.
In data set [8] the test system is RG2. Kind of data set: Induction of apoptosis in rat RG2 cells assessed as phosphorylated caspace-3 expression at 112.4 uM after 48 hrs in presence of TMZ by Western blot analysis (reference value: 1). The format is functional.
For data set [9], the system named is DBTRG-05MG. Kind of data set: Synergistic cytotoxicity against human DBTRG-05MG cells assessed as synergistic effect index at 134.9 uM after 48 hrs in presence of 103 uM TMZ by MTT assay. It is filed as functional.
For data set [10], the system named is RG2. The data set is described as follows: Induction of apoptosis in rat RG2 cells assessed as phosphorylated PARP expression at 112.4 uM after 48 hrs in presence of TMZ by Western blot analysis (reference value: 1). It is filed as functional.
Data set [11] concerns RG2. Kind of data set: Synergistic cytotoxicity against rat RG2 cells assessed as synergistic effect index at 112.4 uM after 48 hrs in presence of 206 uM TMZ by MTT assay. The format is functional.
For data set [12], the system named is RG2. The data set is described as follows: Induction of apoptosis in rat RG2 cells assessed as phosphorylated caspace-9 expression at 112.4 uM after 48 hrs by Western blot analysis (reference value: 1). The format is functional.
Data set [13] has as its system RG2. Kind of data set: Synergistic cytotoxicity against rat RG2 cells assessed as synergistic effect index at 112.4 uM after 48 hrs in presence of 309 uM TMZ by MTT assay. It is filed as functional.
Data set [14] concerns DBTRG-05MG. Kind of data set: Induction of apoptosis in human DBTRG-05MG cells assessed as cleaved PARP expression at 112.4 uM after 48 hrs by Western blot analysis (reference value: 1). It is filed as functional.
Data set [15] concerns DBTRG-05MG. Kind of data set: Induction of cell cycle arrest in human DBTRG-05MG cells assessed as p53 expression at 112.4 uM after 48 hrs in presence of TMZ by Western blot analysis (reference value: 1). It is filed as functional.
In data set [16] the test system is DBTRG-05MG. The data set is described as follows: Induction of DNA damage in human DBTRG-05MG cells assessed as ATM phosphorylation at ser1981 residues at 112.4 uM after 48 hrs by Western blot analysis (reference value: 1). It is filed as functional.
For data set [17], the system named is RG2. Kind of data set: Inhibition of JNK phosphorylation at Thr183/Tyr185 residues in rat RG2 cells at 112.4uM after 48 hrs by Western blot analysis (reference value: 1). The format is cell-based.
The test system of data set [18] is DBTRG-05MG. Kind of data set: Inhibition of TMZ-induced drug resistance in human DBTRG-05MG cells assessed as reduction in MGMT protein expression at 112.4 uM after 48 hrs by Immunohistochemistry method. It is filed as functional, cell-based.
Data set [19] in a line: Effect on p38 expression in human DBTRG-05MG cells at 112.4uM after 48 hrs by Western blot analysis (reference value: 1). The format is functional.
Data set [20] concerns DBTRG-05MG. Kind of data set: Synergistic cytotoxicity against human DBTRG-05MG cells assessed as synergistic effect index at 112.4 uM after 48 hrs in presence of 206 uM TMZ by MTT assay. It is filed as functional.
Data set [21] concerns RG2. The data set is described as follows: Induction of cell cycle arrest in rat RG2 cells assessed as accumulation at S phase at 112.4 uM after 48 hrs by propidium iodide staining based flow cytometric analysis (reference value: 20.15 +/- 2.44%). The format is functional.
Data set [22] relates to DBTRG-05MG. The data set is described as follows: Potentiation of TMZ-induced antitumor activity against human DBTRG-05MG cells xenografted in BALB/c nude mouse assessed as increase in survival time at 75 mg/kg, sc co-treated with TMZ for 18 days. It is filed as functional, organism-based. To be noted: time 18.0 day.
A short description of data set [23]: Synergistic cytotoxicity against rat CTX TNA2 cells assessed as synergistic effect index at 89.9 uM after 48 hrs in presence of 515.1 uM TMZ by MTT assay. It is filed as cell-based. To be noted: ctx tna2, 48 h.
The test system of data set [24] is DBTRG-05MG. Kind of data set: Potentiation of TMZ-induced antitumor activity against human DBTRG-05MG cells xenografted in BALB/c nude mouse assessed as reduction in tumour growth at 75 mg/kg, sc co-treated with TMZ for 18 days. The format is functional, organism-based. To be noted: time 18.0 day.
Data set [25] deals with RG2. Kind of data set: Synergistic cytotoxicity against rat RG2 cells assessed as combination index at 89.9 uM after 48 hrs in presence of 515.1 uM TMZ by MTT assay. It is filed as functional.
In data set [26] the test system is RG2. Kind of data set: Induction of cell cycle arrest in rat RG2 cells assessed as CDK4 expression at 112.4 uM after 48 hrs by Western blot analysis (reference value: 1). The format is functional.
Data set [27] can be described thus: Synergistic cytotoxicity against rat CTX TNA2 cells assessed as combination index at 134.9 uM after 48 hrs in presence of 103 uM TMZ by MTT assay. To be noted: ctx tna2, 48 h. The format is cell-based.
A short description of data set [28]: Effect on AKT expression in human DBTRG-05MG cells at 206 uM after 48 hrs by Western blot analysis (reference value: 1). It is filed as functional.
In data set [29] the test system is RG2. The data set is described as follows: Induction of cell cycle arrest in rat RG2 cells assessed as accumulation at G0/G1 phase at 206 uM after 6 hrs by propidium iodide staining based flow cytometric analysis (reference value: 57.81 +/- 1.9%). It is filed as functional.
Data set [30] relates to RG2. Kind of data set: Inhibition of JNK phosphorylation at Thr183/Tyr185 residues in rat RG2 cells at 206 uM after 48 hrs by Western blot analysis (reference value: 1). It is filed as cell-based.
The subject of data set [31] is DBTRG-05MG. The data set is described as follows: Induction of cell cycle arrest in human DBTRG-05MG cells assessed as accumulation at S phase at 206 uM after 6 hrs by propidium iodide staining based flow cytometric analysis (reference value: 22.76 +/- 1.56%). The format is functional.
Data set [32] concerns RG2. Kind of data set: Induction of apoptosis in rat RG2 cells assessed as cleaved PARP expression at 206 uM after 48 hrs by Western blot analysis (reference value: 1). It is filed as functional.
Data set [33] can be described thus: Effect on ERK expression in human DBTRG-05MG cells at 206 uM after 48 hrs by Western blot analysis (reference value: 1). The format is functional.
Data set [34] concerns RG2. The data set is described as follows: Induction of apoptosis in rat RG2 cells assessed as phosphorylated caspace-9 expression at 206 uM after 48 hrs by Western blot analysis (reference value: 1). It is filed as functional.
Data set [35] has as its system DBTRG-05MG. Kind of data set: Induction of cell cycle arrest in human DBTRG-05MG cells assessed as CyclinA expression at 206 uM after 48 hrs by Western blot analysis (reference value: 1). The format is functional.

In the case of `C[C@@H]1CC[C@H]2C(C)(C)[C@H]3C[C@@]12CC[C@@]3(C)O` [CEDROL], the Activity in data set [1] worked out at 26.38%; in [6], 21.06%; in [21], 16.62%. Also, the Activity_index in data set [2] amounted to 0.9; in data set [4], 0.28; in data set [9], 0.86; in [11], 0.87; in [13], 0.85; in data set [20] it was 0.88. The Activity_index in [23] is given as 0.68. Further, the “fold change (FC)” value in data set [3] is reported as 1.4; in [7], 0.4; in [8] it was 1.2; in data set [10], 0.5; in data set [12] it was 0.6; in [14] it was 1. The “fold change (FC)” value in data set [15] was found to be 2.2; in data set [16], 1.8; in data set [17], 0.7; in data set [19], 1.1; in [26] it was 0.8. Further, the result in [5], in data set [22] and in data set [24] was Active. In data set [18], the inhibition result is “Active”. For the same molecule, the values for the CI in data set [25] and in data set [27] were 1.38 and 1.23, respectively.

Consider `Cn1nnc2c(C(N)=O)ncn2c1=O` [TEMOZOLOMIDE], for which the “fold change (FC)” value in [28] was determined as 1; in [30], 0.9; in data set [32], 1.5; in data set [33] it was 0.9; in data set [34] it was 0.8; in [35], 1.9. The figures for the Activity in data set [29] and in [31] were 54.73% and 24.76%, respectively.
